The values below come from US11312724B2 (ASCENTAGE PHARMA (SUZHOU) CO., LTD., priority 2021, dated 2022).

One experiment relates to MIA PaCa-2 cell. Put plainly: Cell proliferation assay (Celltiter-Glo), MIA PaCa-2. To be noted: Homo sapiens, MIA PaCa-2, 72 h, 3 days. The class given is cell-based. As to the method:
(§1) Cell Proliferation Assay:
(§2) NCI-H358 cell and MIA PaCa-2 cell was cultured in RPMI-1640 supplemented with 10% FBS in humidified incubator at 37° C., 5% CO2. To asses the effect of Compounds of the Disclosure on cell proliferation, exponentially growing cells (5000 cells/well) were plated onto 96-well plates. After cell seeding, a representative Compounds of the Disclosure were added to the cell media (in concentrations ranging from 0 to 10 μM, 3/dilution series). After 3 days, 30 μL Celltiter-Glo reagent was added, and the luminescent signal was determined according to supplier's instruction. The dose response curves and IC50 values were generated using Prism.
A general note: In ATP-based viability assays light output follows the ATP content of the culture.

For a further experiment, the system named is NCI-H358 cell. In words: Cell proliferation assay (Celltiter-Glo), NCI-H358. The class given is cell-based. Conditions: Homo sapiens, NCI-H358, 72 h, 3 days. As to the method: as §1, §2

One may read the IC50 as the point on the concentration scale where inhibition reaches its midpoint. For the compound `C=CC(=O)N1CCN(c2nc(OC[C@@H]3CCCN3C)nc3c2CCC2(CCOc4c(Cl)cccc42)C3)C[C@@H]1CC#N` (stereo partly drawn) [Cpd. No. 22, 2-((2S)-1-acryloyl-4-(8-chloro-2′-(((S)-1-methylpyrrolidin-2-yl)methoxy)-5′,8′-dihydro-6′H-spiro[chromane-4,7′-quinazolin]-4′-yl)piperazin-2-yl)acetonitrile], the half-maximal inhibitory concentration (IC50) in the experiment with MIA PaCa-2 cell came out at 0.49 µM; in the experiment with NCI-H358 cell, 0.94 µM.

In the case of `C=CC(=O)N1CCN(c2nc(OC[C@@H]3CCCN3C)nc3c2CCC2(CCOc4c(Cl)cc(Cl)cc42)C3)C[C@@H]1CC#N` (stereo partly drawn) [Cpd. No. 23, 2-((2S)-1-acryloyl-4-(6,8-dichloro-2′-(((S)-1-methylpyrrolidin-2-yl)methoxy)-5′,8′-dihydro-6′H-spiro[chromane-4,7′-quinazolin]-4′-yl)piperazin-2-yl)acetonitrile], the IC50 with MIA PaCa-2 cell came out at 0.74 µM; with NCI-H358 cell, 1.24 µM.

As for `C=CC(=O)N1CCN(c2nc(OC[C@@H]3CCCN3C)nc3c2CCC2(COCc4ccccc42)C3)C[C@@H]1CC#N` (stereo partly drawn) [Cpd. No. 24, 2-((2S)-1-acryloyl-4-(2′-(((S)-1-methylpyrrolidin-2-yl)methoxy)-5′,8′-dihydro-6′H-spiro[isochromane-4,7′-quinazolin]-4′-yl)piperazin-2-yl)acetonitrile], the IC50 with MIA PaCa-2 cell turned out to be 0.006 µM; with NCI-H358 cell it was 0.011 µM.

`C=CC(=O)N1CCN(c2nc(OC[C@@H]3CCCN3C)nc3c2CCC2(C3)CC(C)Oc3ccccc32)C[C@@H]1CC#N` (stereo partly drawn) [Cpd. No. 25, 2-((2S)-1-acryloyl-4-(2-methyl-2′-(((S)-1-methylpyrrolidin-2-yl)methoxy)-5′,8′-dihydro-6′H-spiro[chromane-4,7′-quinazolin]-4′-yl)piperazin-2-yl)acetonitrile]: the concentration for half-maximal inhibition (IC50) was determined as 1.28 µM in the experiment on MIA PaCa-2 cell and 1.84 µM with NCI-H358 cell.

As to `C=CC(=O)N1CCN(c2nc(OC[C@@H]3CCCN3C)nc3c2CCC2(COCc4cccc(F)c42)C3)C[C@@H]1CC#N` (stereo partly drawn) [Cpd. No. 27, 2-((2S)-1-acryloyl-4-(5-fluoro-2′-(((S)-1-methylpyrrolidin-2-yl)methoxy)-5′,8′-dihydro-6′H-spiro[isochromane-4,7′-quinazolin]-4′-yl)piperazin-2-yl)acetonitrile], the IC50 in the experiment on MIA PaCa-2 cell came to 0.019 µM; in the experiment on NCI-H358 cell, 0.055 µM.

Take `C=CC(=O)N1C2CCC1CN(c1nc(OC[C@@H]3CCCN3C)nc3c1CCC1(COCc4cccc(F)c41)C3)C2` (stereo partly drawn) [Cpd. No. 29, 1-(3-(5-fluoro-2′-(((S)-1-methylpyrrolidin-2-yl)methoxy)-5′,8′-dihydro-6′H-spiro[isochromane-4,7′-quinazolin]-4′-yl)-3,8-diazabicyclo[3.2.1]octan-8-yl)prop-2-en-1-one]: the IC50 in the experiment on MIA PaCa-2 cell is more than 10 µM; in the experiment with NCI-H358 cell, 8.1 µM.

On to `C=CC(=O)N1CCN(c2nc(OC[C@@H]3CCCN3C)nc3c2CCC2(C3)CN(C)Cc3ccccc32)C[C@@H]1CC#N` (stereo partly drawn) [Cpd. No. 30, 2-((2S)-1-acryloyl-4-(2-methyl-2′-(((S)-1-methylpyrrolidin-2-yl)methoxy)-2,3,5′,8′-tetrahydro-1H,6′H-spiro[isoquinoline-4,7′-quinazolin]-4′-yl)piperazin-2-yl)acetonitrile], for which the IC50 with MIA PaCa-2 cell was found to be 4.78 µM; in the experiment with NCI-H358 cell, 2.06 µM.

Regarding `C=CC(=O)N1CCN(c2nc(OC[C@@H]3CCCN3C)nc3c2CCC2(C3)CS(=O)(=O)Cc3ccccc32)C[C@@H]1CC#N` (stereo partly drawn) [Cpd. No. 31, 2-((2S)-1-acryloyl-4-(2′-(((S)-1-methylpyrrolidin-2-yl)methoxy)-2,2-dioxido-5′,8′-dihydro-6′H-spiro[isothiochromane-4,7′-quinazolin]-4′-yl)piperazin-2-yl)acetonitrile], the IC50 in the experiment with MIA PaCa-2 cell and in the experiment on NCI-H358 cell was more than 10 µM throughout.

For `C=CC(=O)N1CCN(c2nc(OC[C@@H]3CCCN3C)nc3c2CCC2(COC(C)c4ccccc42)C3)C[C@@H]1CC#N` (stereo partly drawn) [Cpd. No. 32, 2-((2S)-1-acryloyl-4-(1-methyl-2′-(((S)-1-methylpyrrolidin-2-yl)methoxy)-5′,8′-dihydro-6′H-spiro[isochromane-4,7′-quinazolin]-4′-yl)piperazin-2-yl)acetonitrile], the IC50 in the experiment on MIA PaCa-2 cell was 0.022 µM; with NCI-H358 cell, 0.083 µM.

Consider `C=CC(=O)N1CCN(c2nc(OC[C@@H]3CCCN3C)nc3c2CCC2(COC(C(F)(F)F)c4ccccc42)C3)C[C@@H]1CC#N` (stereo partly drawn) [Cpd. No. 33, 2-((2S)-1-acryloyl-4-(2′-(((S)-1-methylpyrrolidin-2-yl)methoxy)-1-(trifluoromethyl)-5′,8′-dihydro-6′H-spiro[isochromane-4,7′-quinazolin]-4′-yl)piperazin-2-yl)acetonitrile], for which the results for the concentration for half-maximal inhibition (IC50) with MIA PaCa-2 cell and in the experiment with NCI-H358 cell were 0.03 µM and 0.045 µM, respectively.

Take `C=CC(=O)N1CCN(c2nc(OC[C@@H]3CCCN3C)nc3c2CCC2(COC(C)(C)c4ccccc42)C3)C[C@@H]1CC#N` (stereo partly drawn) [Cpd. No. 34, 2-((2S)-1-acryloyl-4-(1,1-dimethyl-2′-(((S)-1-methylpyrrolidin-2-yl)methoxy)-5′,8′-dihydro-6′H-spiro[isochromane-4,7′-quinazolin]-4′-yl)piperazin-2-yl)acetonitrile]: the results for the IC50 in the experiment on MIA PaCa-2 cell and in the experiment on NCI-H358 cell were 0.75 µM and 1.35 µM, respectively.

As to `C=CC(=O)N1CCN(c2nc(OC[C@@H]3CCCN3C)nc3c2CCC2(COC(C)c4c(F)cccc42)C3)C[C@@H]1CC#N` (stereo partly drawn) [Cpd. No. 35, 2-((2S)-1-acryloyl-4-(8-fluoro-1-methyl-2′-(((S)-1-methylpyrrolidin-2-yl)methoxy)-5′,8′-dihydro-6′H-spiro[isochromane-4,7′-quinazolin]-4′-yl)piperazin-2-yl)acetonitrile], the half-inhibitory concentration (IC50) with MIA PaCa-2 cell was 0.02 µM; in the experiment on NCI-H358 cell, 0.043 µM.

`C=C(F)C(=O)N1CCN(c2nc(OC[C@@H]3CCCN3C)nc3c2CCC2(COC(C)c4c(F)cccc42)C3)C[C@@H]1CC#N` (stereo partly drawn) [Cpd. No. 36, 2-((2S)-4-(8-fluoro-1-methyl-2′-(((S)-1-methylpyrrolidin-2-yl)methoxy)-5′,8′-dihydro-6′H-spiro[isochromane-4,7′-quinazolin]-4′-yl)-1-(2-fluoroacryloyl)piperazin-2-yl)acetonitrile]: the values for the concentration for half-maximal inhibition (IC50) in the experiment on MIA PaCa-2 cell and in the experiment with NCI-H358 cell were 0.16 µM and 0.26 µM, respectively.

In the case of `C=CC(=O)N1CCN(c2nc(OC[C@@H]3CCCN3C)nc3c2CCC2(C3)CN(C)C(=O)c3ccccc32)C[C@@H]1CC#N` (stereo partly drawn) [Cpd. No. 37, 2-((2S)-1-acryloyl-4-(2-methyl-2′-(((S)-1-methylpyrrolidin-2-yl)methoxy)-1-oxo-2,3,5′,8′-tetrahydro-1H,6′H-spiro[isoquinoline-4,7′-quinazolin]-4′-yl)piperazin-2-yl)acetonitrile], the 50% inhibitory concentration (IC50) in the experiment with MIA PaCa-2 cell and in the experiment with NCI-H358 cell was more than 10 µM in each case.

As for `C=CC(=O)N1CCN(c2nc(OC[C@@H]3CCCN3C)nc3c2CCC2(C3)CC3(CC3)c3c(F)cccc32)C[C@@H]1CC#N` (stereo partly drawn) [Cpd. No. 38, 2-((2S)-1-acryloyl-4-(4′-fluoro-2″-(((S)-1-methylpyrrolidin-2-yl)methoxy)-5″,8″-dihydro-2′H,6″H-dispiro[cyclopropane-1,3′-indene-1′,7″-quinazolin]-4″-yl)piperazin-2-yl)acetonitrile], the values for the half-inhibitory concentration (IC50) in the experiment on MIA PaCa-2 cell and in the experiment with NCI-H358 cell were 0.093 µM and 0.29 µM, respectively.

As for `C=CC(=O)N1CCN(c2nc(OC[C@@H]3CCCN3C)nc3c2CCC2(C3)c3cccc(F)c3C3CC32)C[C@@H]1CC#N` (stereo partly drawn) [Cpd. No. 39, 2-((2S)-1-acryloyl-4-(2-fluoro-2′-(((S)-1-methylpyrrolidin-2-yl)methoxy)-1a,5′,6a,8′-tetrahydro-1H,6′H-spiro[cyclopropa[a]indene-6,7′-quinazolin]-4′-yl)piperazin-2-yl)acetonitrile], the half-inhibitory concentration (IC50) came out at 0.37 µM in the experiment on MIA PaCa-2 cell and 0.67 µM in the experiment with NCI-H358 cell.

In the case of `COC/C=C/C(=O)N1CCN(c2nc(OC[C@@H]3CCCN3C)nc3c2CCC2(CCc4ccccc42)C3)C[C@@H]1CC#N` (stereo partly drawn) [Cpd. No. 40, 2-((2S)-1-((E)-4-methoxybut-2-enoyl)-4-(2′-(((S)-1-methylpyrrolidin-2-yl)methoxy)-2,3,5′,8′-tetrahydro-6′H-spiro[indene-1,7′-quinazolin]-4′-yl)piperazin-2-yl)acetonitrile], the IC50 in the experiment with MIA PaCa-2 cell is 0.44 µM; with NCI-H358 cell, 0.56 µM.

In the case of `CN1CCC[C@H]1COc1nc2c(c(N3CCN(C(=O)/C=C/CN4CC(F)C4)[C@@H](CC#N)C3)n1)CCC1(CCc3ccccc31)C2` (stereo partly drawn) [Cpd. No. 41, 2-((2S)-1-((E)-4-(3-fluoroazetidin-1-yl)but-2-enoyl)-4-(2′-(((S)-1-methylpyrrolidin-2-yl)methoxy)-2,3,5′,8′-tetrahydro-6′H-spiro[indene-1,7′-quinazolin]-4′-yl)piperazin-2-yl)acetonitrile], the values for the concentration for half-maximal inhibition (IC50) in the experiment on MIA PaCa-2 cell and in the experiment on NCI-H358 cell were 0.091 µM and 0.32 µM, respectively.

For `C=C(COC)C(=O)N1CCN(c2nc(OC[C@@H]3CCCN3C)nc3c2CCC2(CCc4ccccc42)C3)C[C@@H]1CC#N` (stereo partly drawn) [Cpd. No. 42, 2-((2S)-1-(2-(methoxymethyl)acryloyl)-4-(2′-(((S)-1-methylpyrrolidin-2-yl)methoxy)-2,3,5′,8′-tetrahydro-6′H-spiro[indene-1,7′-quinazolin]-4′-yl)piperazin-2-yl)acetonitrile], the half-inhibitory concentration (IC50) is 5.8 µM with MIA PaCa-2 cell and 10.4 µM in the experiment with NCI-H358 cell.

On to `CN1CCC[C@H]1COc1nc2c(c(N3CCN(C(=O)/C=C/CF)[C@@H](CC#N)C3)n1)CCC1(CCc3ccccc31)C2` (stereo partly drawn) [Cpd. No. 43, 2-((2S)-1-((E)-4-fluorobut-2-enoyl)-4-(2′-(((S)-1-methylpyrrolidin-2-yl)methoxy)-2,3,5′,8′-tetrahydro-6′H-spiro[indene-1,7′-quinazolin]-4′-yl)piperazin-2-yl)acetonitrile], for which the figures for the half-maximal inhibitory concentration (IC50) in the experiment on MIA PaCa-2 cell and in the experiment on NCI-H358 cell were 0.13 µM and 0.12 µM, respectively.
